The target of the assay is USP30 (Homo sapiens (Human), UniProt Q70CQ3). Nature of the assay: USP30 biochemical FP or FI IC50 assay. The conditions noted are these: read-out: IC50 range. On the procedure: USP30 Biochemical IC50 Assay
USP30, sequence (Q70CQ3 57-517): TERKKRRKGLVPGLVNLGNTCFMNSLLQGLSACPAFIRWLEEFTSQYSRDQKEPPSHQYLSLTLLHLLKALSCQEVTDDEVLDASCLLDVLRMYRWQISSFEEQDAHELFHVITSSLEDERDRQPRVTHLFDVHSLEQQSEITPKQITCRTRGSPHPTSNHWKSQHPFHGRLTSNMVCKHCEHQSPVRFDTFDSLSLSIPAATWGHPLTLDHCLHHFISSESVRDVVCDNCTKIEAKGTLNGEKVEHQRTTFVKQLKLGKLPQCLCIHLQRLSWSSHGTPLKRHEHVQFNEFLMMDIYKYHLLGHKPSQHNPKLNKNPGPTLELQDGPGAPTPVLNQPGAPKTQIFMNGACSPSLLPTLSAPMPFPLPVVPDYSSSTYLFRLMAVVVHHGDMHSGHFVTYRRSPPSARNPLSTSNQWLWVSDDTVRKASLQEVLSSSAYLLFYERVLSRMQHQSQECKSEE
Dilution plates were prepared at 21 times the final concentration (2100 μM for a final concentration of 100 μM) in 50% DMSO in a 96-well polypropylene V-bottom plate (Greiner #651201). A typical 8-point dilution series would be 100, 30, 10, 3, 1, 0.3, 0.1, 0.03 μM final. Reactions were performed in duplicate in black 384 well plates (small volume, Greiner 784076) in a final reaction volume of 21 μl. Either 1 μl of 50% DMSO or diluted compound was added to the plate. USP30 was diluted in reaction buffer (40 mM Tris, pH 7.5, 0.005% Tween 20, 0.5 mg/ml BSA, 5 mM—beta-mercaptoethanol) to the equivalent of 0.05 μl/well and 10 μl of diluted USP30 was added to the compound. Enzyme and compound were incubated for 30 min at room temp. Reactions were initiated by the addition of 50 nM of TAMRA labelled peptide linked to ubiquitin via an iso-peptide bond as fluorescence polarisation substrate. Reactions were read immediately after addition of substrate and following a 2 hr incubation at room temperature. Readings were performed on a Pherastar Plus (BMG Labtech). λ Excitation 540 nm; λ Emission 590 nm.
USP30 Biochemical Fluorescence Intensity IC50 Assay
Dilution plates were prepared at 21 times the final concentration (2100 μM for a final concentration of 100 μM) in 50% DMSO in a 96-well polypropylene V-bottom plate (Greiner #651201). A typical 8-point dilution series would be 100, 30, 10, 3, 1, 0.3, 0.1, 0.03 μM final. Reactions were performed in duplicate in black 384 well plates (small volume, Greiner 784076) in a final reaction volume of 21 μl.
Either 1 μl of 50% DMSO or diluted compound was added to the plate. USP30 was diluted in reaction buffer (40 mM Tris, pH 7.5, 0.005% Tween 20, 0.5 mg/ml BSA, 5 mM—beta-mercaptoethanol) to the equivalent of 0.001 μl/well and 10 μl of diluted USP30 was added to the compound. Enzyme and compound were incubated for 30 min at room temp. Reactions were initiated by the addition of Ubiquitin-Rhodamine 110 (U-555; Boston Biochem) at a final concentration of 100 nM. Reactions were read immediately after addition of substrate and following a 2 h incubation at room temperature. Readings were performed on a Pherastar Plus (BMG Labtech). λ Excitation 487 nm; λ Emission 535 nm.
For `N#CN1CCC(NC(=O)c2nc(-c3ccccc3)cs2)C1` (racemic) [Example 7, N-(1-cyanopyrrolidin-3-yl)-4-phenylthiazole-2-carboxamide], the 50% inhibitory concentration (IC50) fell in the range of 0.1 to 1 µM. The value for `N#CN1CCC(NC(=O)c2cc(-c3cccc(Cl)c3)no2)C1` (racemic) [Example 8, 3-(3-chlorophenyl)-N-(1-cyanopyrrolidin-3-yl)isoxazole-5-carboxamide] was less than 0.1 µM; that for `N#CN1CCC(NC(=O)c2cn(-c3ccccc3)cn2)C1` (racemic) [Example 9, N-(1-cyanopyrrolidin-3-yl)-1-phenyl-1H-imidazole-4-carboxamide] was 0.1 to 1 µM. On to `N#CN1CCC(NC(=O)C2CC(=O)N(Cc3ccc(F)cc3F)C2)C1` (racemic) [Example 10, N-(1-cyanopyrrolidin-3-yl)-1-(2,4-difluorobenzyl)-5-oxopyrrolidine-3-carboxamide], for which the IC50 was 0.1 to 1 µM. In the case of `Cc1noc(C)c1-c1ccc(C(=O)NC2CCN(C#N)C2)cc1` (racemic) [Example 12, N-(1-cyanopyrrolidin-3-yl)-4-(3,5-dimethylisoxazol-4-yl)benzamide], the IC50 was in the range of 0.1 to 1 µM. The result for `N#CN1CCC(NC(=O)c2ccc(-c3cccc(Cl)c3)cc2)C1` (racemic) [Example 13, 3′-chloro-N-(1-cyanopyrrolidin-3-yl)-[1,1′-biphenyl]-4-carboxamide] reads less than 0.1 µM; that for `COc1ccccc1-c1ccc(C(=O)NC2CCN(C#N)C2)cc1` (racemic) [Example 14, N-(1-cyanopyrrolidin-3-yl)-2′-methoxy-[1,1′-biphenyl]-4-carboxamide], less than 0.1 µM; that for `N#CN1CCC(NC(=O)c2ccc(Oc3ccccc3)cc2)C1` (racemic) [Example 15, N-(1-cyanopyrrolidin-3-yl)-4-phenoxybenzamide], 1 to 10 µM. The result for `N#CN1CCC(NC(=O)Cc2ccc(-c3ccccc3)cc2)C1` (racemic) [Example 16, 2-([1,1′-biphenyl]-4-yl)-N-(1-cyanopyrrolidin-3-yl)acetamide] reads 1 to 10 µM. The result for `N#CN1CCC(NC(=O)c2cc(-c3ccccc3)nc3ccccc23)C1` (racemic) [Example 17, N-(1-cyanopyrrolidin-3-yl)-2-phenylquinoline-4-carboxamide] reads 1 to 10 µM; that for `N#CN1CCC(NC(=O)c2ccc(N3CCC(C(N)=O)CC3)nc2)C1` (racemic) [Example 18, 6-(4-carbamoylpiperidin-1-yl)-N-(1-cyanopyrrolidin-3-yl)nicotinamide], 1 to 10 µM. As to `N#CN1CCC(NC(=O)c2ccc(N3CCN(c4ccc(F)cc4F)CC3)nc2)C1` (racemic) [Example 19, N-(1-cyanopyrrolidin-3-yl)-6-(4-(2,4-difluorophenyl)piperazin-1-yl)nicotinamide], the IC50 was in the range of 0.1 to 1 µM. The result for `CCOC(=O)N1CCN(c2ccc(C(=O)NC3CCN(C#N)C3)cn2)CC1` (racemic) [Example 20, ethyl 4-(5-((1-cyanopyrrolidin-3-yl)carbamoyl)pyridin-2-yl)piperazine-1-carboxylate] reads 1 to 10 µM. The value for `N#CN1CCC(NC(=O)c2ccc(N3CCCC3c3cccnc3)nc2)C1` (racemic) [Example 21, N-(1-cyanopyrrolidin-3-yl)-6-(2-(pyridin-3-yl)pyrrolidin-1-yl)nicotinamide] was 1 to 10 µM; that for `N#CN1CCC(NC(=O)c2ccc(N3CCC(c4ccncc4)CC3)nc2)C1` (racemic) [Example 23, N-(1-cyanopyrrolidin-3-yl)-6-(4-(pyridin-4-yl)piperidin-1-yl)nicotinamide] was 0.1 to 1 µM. As to `N#CN1CCC(NC(=O)c2cccc(N3CCc4ccccc4C3)n2)C1` (racemic) [Example 25, N-(1-cyanopyrrolidin-3-yl)-6-(3,4-dihydroisoquinolin-2(1H)-yl)picolinamide], the IC50 was 1 to 10 µM.

Regarding `N#CN1CCC(NC(=O)c2cccc(N3CCC(Oc4ccccc4)CC3)n2)C1` (racemic) [Example 26, N-(1-cyanopyrrolidin-3-yl)-6-(4-phenoxypiperidin-1-yl)picolinamide], the IC50 is 1 to 10 µM.

Consider `CC(=O)N1CCCN(c2cc(C(=O)NC3CCN(C#N)C3)ccn2)CC1` (racemic) [Example 28, 2-(4-acetyl-1,4-diazepan-1-yl)-N-(1-cyanopyrrolidin-3-yl)isonicotinamide], for which the IC50 fell in the range of 1 to 10 µM. As for `N#CN1C[C@H]2CCN(C(=O)c3cccc(-c4ccccc4)c3)[C@H]2C1` (racemic) [Example 51, rac-(3aR,6aR)-1-([1,1′-biphenyl]-3-carbonyl)hexahydropyrrolo[3,4-b]pyrrole-5(1H)-carbonitrile], the 50% inhibitory concentration (IC50) was less than 0.1 µM. Take `N#CN1C[C@H]2CCN(C(=O)c3cc(-c4ccccc4)n[nH]3)[C@H]2C1` (racemic) [Example 52, rac-(3aR,6aR)-1-(3-phenyl-1H-pyrazole-5-carbonyl)hexahydropyrrolo[3,4-b]pyrrole-5(1H)-carbonitrile]: the IC50 lay in the range of 0.1 to 1 µM. The value for `N#CN1C[C@H]2CCN(C(=O)c3cc(-c4ccccc4)no3)[C@H]2C1` (racemic) [Example 53, rac-(3aR,6aR)-1-(3-phenylisoxazole-5-carbonyl)hexahydropyrrolo[3,4-b]pyrrole-5(1H)-carbonitrile] was 0.1 to 1 µM; that for `N#CN1C[C@H]2CCN(C(=O)c3cn(-c4ccccc4)cn3)[C@H]2C1` (racemic) [Example 54, rac-(3aR,6aR)-1-(1-phenyl-1H-imidazole-4-carbonyl)hexahydropyrrolo[3,4-b]pyrrole-5(1H)-carbonitrile] was 0.1 to 1 µM. The value for `COc1ccc(-c2cc(C(=O)N3CC[C@@H]4CN(C#N)C[C@@H]43)[nH]n2)cc1` (racemic) [Example 55, rac-(3aR,6aR)-1-(3-(4-methoxyphenyl)-1H-pyrazole-5-carbonyl)hexahydropyrrolo[3,4-b]pyrrole-5(1H)-carbonitrile] was 0.1 to 1 µM; that for `COc1ccc(-c2cc(C(=O)N3CC[C@@H]4CN(C#N)C[C@@H]43)on2)cc1` (racemic) [Example 56, rac-(3aR,6aR)-1-(3-(4-methoxyphenyl)isoxazole-5-carbonyl)hexahydropyrrolo[3,4-b]pyrrole-5(1H)-carbonitrile] was 0.1 to 1 µM.

On to `N#CN1C[C@H]2CCN(C(=O)c3ccc(F)c(-c4ccncc4)c3)[C@H]2C1` (racemic) [Example 57, rac-(3aR,6aR)-1-(4-fluoro-3-(pyridin-4-yl)benzoyl)hexahydropyrrolo[3,4-b]pyrrole-5(1H)-carbonitrile], for which the IC50 was in the range of 0.1 to 1 µM. On to `Cn1cc(-c2cc(C(=O)N3CC[C@@H]4CN(C#N)C[C@@H]43)ccc2F)cn1` (racemic) [Example 58, rac-(3aR,6aR)-1-(4-fluoro-3-(1-methyl-1H-pyrazol-4-yl)benzoyl)hexahydropyrrolo[3,4-b]pyrrole-5(1H)-carbonitrile], for which the IC50 was 0.1 to 1 µM. The result for `COc1cc(C(=O)N2CC[C@@H]3CN(C#N)C[C@@H]32)ccc1-c1ccncc1Cl` (racemic) [Example 59, rac-(3aR,6aR)-1-(4-(3-chloropyridin-4-yl)-3-methoxybenzoyl)hexahydropyrrolo[3,4-b]pyrrole-5(1H)-carbonitrile] reads 0.1 to 1 µM. Consider `COc1cc(C(=O)N2CC[C@@H]3CN(C#N)C[C@@H]32)ccc1-c1cnn(C)c1` (racemic) [Example 60, rac-(3aR,6aR)-1-(3-methoxy-4-(1-methyl-1H-pyrazol-4-yl)benzoyl)hexahydropyrrolo[3,4-b]pyrrole-5(1H)-carbonitrile], for which the IC50 lay within 1 to 10 µM.

The IC50 is the concentration that inhibits the measured activity by half.

The values are drawn from US10343992B2, “1-cyano-pyrrolidine compounds as USP30 inhibitors” (MISSION THERAPEUTICS LIMITED, priority 2015, dated 2019).
